According to US20120264735A1 (priority 2009, published 2012):

Molecular target: T1, c-Met kinase (recombinant c-Met) (Homo sapiens, UniProt P08581)
T1 construct: 0.27 nM recombinant c-Met
Experiment: In vitro kinase assay I (homogeneous time-resolved fluorescence tyrosine kinase assay)
Format: biochemical
Summary of the method: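 Biotinylated peptide (0.5 μM) phosphorylated by 0.2 nM recombinant c-Met with 50 μM MgATP, 60 min at room temperature, pH 7.4, 5% DMSO. EDTA stop; HTRF read with Eu-anti-phosphotyrosine antibody and streptavidin-APC. IC50 from 4-parameter logistic fit.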

T1 sequence (P08581 25-1390): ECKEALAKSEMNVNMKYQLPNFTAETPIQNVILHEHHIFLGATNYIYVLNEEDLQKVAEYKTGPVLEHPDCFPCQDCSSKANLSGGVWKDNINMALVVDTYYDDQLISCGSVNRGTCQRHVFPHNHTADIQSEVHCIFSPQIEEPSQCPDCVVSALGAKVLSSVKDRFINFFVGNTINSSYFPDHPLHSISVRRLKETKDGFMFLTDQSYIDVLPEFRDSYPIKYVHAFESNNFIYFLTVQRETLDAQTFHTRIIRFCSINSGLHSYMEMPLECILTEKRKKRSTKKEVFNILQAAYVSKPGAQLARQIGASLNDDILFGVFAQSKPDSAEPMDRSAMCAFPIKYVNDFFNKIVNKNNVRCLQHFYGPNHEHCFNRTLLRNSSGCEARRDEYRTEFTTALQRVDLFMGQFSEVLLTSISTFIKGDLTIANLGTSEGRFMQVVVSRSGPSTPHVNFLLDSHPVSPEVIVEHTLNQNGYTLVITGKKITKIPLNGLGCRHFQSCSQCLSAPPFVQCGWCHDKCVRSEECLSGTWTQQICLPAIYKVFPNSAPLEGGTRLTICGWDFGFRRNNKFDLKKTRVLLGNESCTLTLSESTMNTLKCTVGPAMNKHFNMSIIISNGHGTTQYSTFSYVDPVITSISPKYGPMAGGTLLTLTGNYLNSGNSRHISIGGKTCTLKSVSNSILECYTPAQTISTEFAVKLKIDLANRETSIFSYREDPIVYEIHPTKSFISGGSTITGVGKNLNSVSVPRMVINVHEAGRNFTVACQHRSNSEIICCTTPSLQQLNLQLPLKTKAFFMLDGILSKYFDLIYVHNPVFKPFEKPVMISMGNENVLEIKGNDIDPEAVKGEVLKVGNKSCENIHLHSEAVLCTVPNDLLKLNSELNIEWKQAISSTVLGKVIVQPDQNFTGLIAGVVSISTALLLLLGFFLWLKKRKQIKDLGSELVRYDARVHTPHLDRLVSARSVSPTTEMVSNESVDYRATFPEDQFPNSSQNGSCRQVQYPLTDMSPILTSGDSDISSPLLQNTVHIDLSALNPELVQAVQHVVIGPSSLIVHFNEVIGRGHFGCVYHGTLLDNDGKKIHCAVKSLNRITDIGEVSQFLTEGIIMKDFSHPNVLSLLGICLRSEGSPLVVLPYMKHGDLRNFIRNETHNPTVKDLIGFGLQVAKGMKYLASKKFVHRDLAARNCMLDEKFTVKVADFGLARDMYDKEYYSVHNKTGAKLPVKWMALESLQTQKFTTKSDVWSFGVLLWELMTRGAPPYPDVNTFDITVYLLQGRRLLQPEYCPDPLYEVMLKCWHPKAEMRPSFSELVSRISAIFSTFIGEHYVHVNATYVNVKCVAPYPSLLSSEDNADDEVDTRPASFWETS

IC50, < 100 nM:
CC1(COc2cnc(-c3cccc(Cc4nn(-c5ccc(F)c(F)c5)ccc4=O)c3)nc2)COC1 [Example 329, 1-(3,4-difluorophenyl)-3-(3-{5-[(3-methyloxetan-3-yl)methoxy]pyrimidin-2-yl}benzyl)pyridazin-4(1H)-one]
O=c1ccn(-c2cc(F)cc(F)c2)nc1Cc1cccc(-c2ncc(OC3COC3)cn2)c1 [Example 330]
O=c1ccn(-c2cc(F)cc(F)c2)nc1Cc1cccc(-c2ncc(OCC3CCOCC3)cn2)c1 [Example 331, 1-(3,5-difluorophenyl)-3-{3-[5-(tetrahydro-2H-pyran-4-ylmethoxy)pyrimidin-2-yl]benzyl}pyridazin-4(1H)-one]
CCn1cc(-n2ccc(=O)c(Cc3cccc(-c4ncc(OCC5(F)CCNCC5)cn4)c3)n2)cn1 [Example 335, 1-(1-ethyl-1H-pyrazol-4-yl)-3-(3-{5-[(4-fluoropiperidin-4-yl)methoxy]pyrimidin-2-yl}benzyl)pyridazin-4(1H)-one]
CCn1cc(-n2ccc(=O)c(Cc3cccc(-c4ncc(OCC5CCNCC5)cn4)c3)n2)cn1 [Example 336, 1-(1-ethyl-1H-pyrazol-4-yl)-3-{3-[5-(piperidin-4-ylmethoxy)pyrimidin-2-yl]benzyl}pyridazin-4(1H)-one]
CCn1cc(-n2ccc(=O)c(Cc3cccc(-c4ncc(OC5CNC5)cn4)c3)n2)cn1 [Example 337, 3-{3-[5-(azetidin-3-yloxy)pyrimidin-2-yl]benzyl}-1-(1-ethyl-1H-pyrazol-4-yl)pyridazin-4(1H)-one]
CC(c1cccc(-c2ncc(O[C@H]3CCNC[C@H]3F)cn2)c1)c1nn(-c2cnn(C)c2)ccc1=O (some centres unmarked) [Example 344]
Cn1cc(-n2ccc(=O)c(Cc3cccc(-c4ncc(OCc5ccncc5)cn4)c3)n2)cn1 [Example 353, 1-(1-Methyl-1H-pyrazol-4-yl)-3-{3-[5(pyridin-4-ylmethoxy)pyrimidin-2-yl]benzyl}pyridazin-4(1H)-one]
Cn1cc(-n2ccc(=O)c(Cc3cccc(-c4ncc(OCc5ccccn5)cn4)c3)n2)cn1 [Example 354, 1-(1-methyl-1H-pyrazol-4-yl)-3-{3-[5-(pyridin-2-ylmethoxy)pyrimidin-2-yl]benzyl}pyridazin-4(1H)-one]
Cn1cc(-n2ccc(=O)c(Cc3cccc(-c4ncc(OCc5cccnc5)cn4)c3)n2)cn1 [Example 355, 1-(1-methyl-1H-pyrazol-4-yl)-3-{3-[5-(pyridin-3-ylmethoxy)pyrimidin-2-yl]benzyl}pyridazin-4(1H)-one]
Cn1cc(-n2ccc(=O)c(Cc3cccc(-c4ncc(OCc5ncn(C)n5)cn4)c3)n2)cn1 [Example 356, 1-(1-methyl-1H-pyrazol-4-yl)-3-(3-{5-[(1-methyl-1H-1,2,4-triazol-3-yl)methoxy]pyrimidin-2-yl}benzyl)pyridazin-4(1H)-one]
Cn1cc(-n2ccc(=O)c(Cc3cccc(-c4ncc(OCC(=O)O)cn4)c3)n2)cn1 [Example 357, [2-(3-{[1-(1-Methyl-1H-pyrazol-4-yl)-4-oxo-1,4-dihydropyridazin-3-yl]methyl}phenyl)pyrimidin-5-yl]oxyacetic acid]
Cn1cc(-n2ccc(=O)c(Cc3cccc(-c4ncc(OCC(C)(C)O)cn4)c3)n2)cn1 [Example 358, 3-{3-[5-(2-Hydroxy-2-methylpropoxy)pyrimidin-2-yl]benzyl}-1-(1-methyl-1H-pyrazol-4-yl)pyridazin-4(1H)-one]
CCn1cc(-n2ccc(=O)c(Cc3cccc(-c4ncc(OCC(C)(C)O)cn4)c3)n2)cn1 [Example 359, 1-(1-ethyl-1H-pyrazol-4-yl)-3-{3-[5-(2-hydroxy-2-methylpropoxy)pyrimidin-2-yl]benzyl}pyridazin-4(1H)-one]
CC(C)(O)COc1cnc(-c2cccc(Cc3nn(-c4ccc(F)c(F)c4)ccc3=O)c2)nc1 [Example 360, 1-(3,4-difluorophenyl)-3-{3-[5-(2-hydroxy-2-methylpropoxy)pyrimidin-2-yl]benzyl}pyridazin-4(1H)-one]
CC(C)(O)COc1cnc(-c2cccc(Cc3nn(-c4cccc(C#N)c4)ccc3=O)c2)nc1 [Example 361, 3-[3-{3-[5-(2-hydroxy-2-methylpropoxy)pyrimidin-2-yl]benzyl}-4-oxopyridazin-1(4H)-yl]benzonitrile]
CC(C)(O)COc1cnc(-c2cccc(Cc3nn(-c4cc(F)c(F)c(F)c4)ccc3=O)c2)nc1 [Example 362, 3-{3-[5-(2-hydroxy-2-methylpropoxy)pyrimidin-2-yl]benzyl}-1-(3,4,5-trifluorophenyl)pyridazin-4(1H)-one]
CC(C)(O)COc1cnc(-c2cccc(Cc3nn(-c4cc(F)cc(F)c4)ccc3=O)c2)nc1 [Example 363, 1-(3,5-difluorophenyl)-3-{3-[5-(2-hydroxy-2-methylpropoxy)pyrimidin-2-yl]benzyl}pyridazin-4(1H)-one]
Cn1cc(-n2ccc(=O)c(Cc3cccc(-c4ncc(OCC5(O)CCOCC5)cn4)c3)n2)cn1 [Example 365, 3-(3-{5-[(4-hydroxytetrahydro-2H-pyran-4-yl)methoxy]pyrimidin-2-yl}benzyl)-1-(1-methyl-1H-pyrazol-4-yl)pyridazin-4(1H)-one]
CC(C)(O)COc1cnc(-c2cccc(Cc3nn(-c4cc(Cl)cc(C#N)c4)ccc3=O)c2)nc1 [Example 371, 3-chloro-5-[3-{3-[5-(2-hydroxy-2-methylpropoxy)pyrimidin-2-yl]benzyl}-4-oxopyridazin-1(4H)-yl]benzonitrile]
CC(C)(O)COc1cnc(-c2cccc(Cc3nn(-c4ccc(C#N)cc4)ccc3=O)c2)nc1 [Example 372, 4-[3-{3-[5-(2-hydroxy-2-methylpropoxy)pyrimidin-2-yl]benzyl}-4-oxopyridazin-1(4H)-yl]benzonitrile]
O=c1ccn(-c2ccc(F)c(F)c2)nc1Cc1cccc(-c2ncc(OCC3(O)CCOCC3)cn2)c1 [Example 373, 1-(3,4-difluorophenyl)-3-(3-{5-[(4-hydroxytetrahydro-2H-pyran-4-yl)methoxy]pyrimidin-2-yl}benzyl)pyridazin-4(1H)-one]
Cn1cc(-n2ccc(=O)c(Cc3cccc(-c4ncc(OC(F)F)cn4)c3)n2)cn1 [Example 386, 3-{3-[5-(Difluoromethoxy)pyrimidin-2-yl]benzyl}-1-(1-methyl-1H-pyrazol-4-yl)pyridazin-4(1H)-one]
Cn1cc(-n2ccc(=O)c(Cc3cccc(-c4ncc(OCC5(CF)COC5)cn4)c3)n2)cn1 [Example 387, 3-[3-(5-{[3-(Fluoromethyl)oxetan-3-yl]methoxy}pyrimidin-2-yl)benzyl]-1-(1-methyl-1H-pyrazol-4-yl)pyridazin-4(1H)-one]
Cn1cc(-n2ccc(=O)c(Cc3cccc(-c4ncc(OCC5(F)CCOCC5)cn4)c3)n2)cn1 [Example 388, 3-(3-{5-[(4-fluorotetrahydro-2H-pyran-4-yl)methoxy]pyrimidin-2-yl}benzyl)-1-(1-methyl-1H-pyrazol-4-yl)pyridazin-4(1H)-one]
CCc1cnc(-c2cccc(Cc3nn(-c4cnn(C)c4)ccc3=O)c2)nc1 [Example 391, 3-[3-(5-Ethylpyrimidin-2-yl)benzyl]-1-(1-methyl-1H-pyrazol-4-yl)pyridazin-4(1H)-one]
